Source: ChEMBL document CHEMBL5252647 (Bioorg Med Chem, 2023)

Key:
HepG2 = assay: Antiproliferative activity against human HepG2 cells assessed as inhibition of cell growth incubated for 72 hrs by MTT assay; format: functional, cell-based; details: HepG2, 72 h
MCF7 [1] = assay: Antiproliferative activity against human MCF7 cells assessed as inhibition of cell growth incubated for 72 hrs by MTT assay; format: functional, cell-based; details: MCF7, 72 h
A549 = assay: Antiproliferative activity against human A549 cells assessed as inhibition of cell growth incubated for 72 hrs by MTT assay; format: functional, cell-based; details: A549, 72 h
MDA-MB-231 [2] = assay: Antiproliferative activity against human MDA-MB-231 cells assessed as inhibition of cell growth incubated for 72 hrs by MTT assay; format: functional, cell-based; details: MDA-MB-231, 72 h
MDA-MB-231 [3] = assay: Induction of apoptosis in human MDA-MB-231 cells assessed as late apoptotic cells at 10 uM incubated for 24 hrs by annexin V-FITC/propidium iodide staining based flow cytometry analysis (reference value: 0.113%); format: functional
MDA-MB-231 [4] = assay: Induction of apoptosis in human MDA-MB-231 cells assessed as viable cells at 10 uM incubated for 24 hrs by annexin V-FITC/propidium iodide staining based flow cytometry analysis (reference value: 96.5%); format: functional; details: read-out: Activity
[5] = molecular target: Cyclin-dependent kinase 4 (Homo sapiens, UniProt P11802); assay: Covalent inhibition of CDK4 (unknown origin) using histone H1 as substrate incubated for 10 mins in presence of [gamma-32P]ATP by radioactivity based kinase assay
MDA-MB-231 [6] = assay: Cell cycle arrest in human MDA-MB-231 cells assessed as accumulation of cells at G0/G1 phase at 10 uM incubated for 24 hrs by propidium iodide staining based assay (reference value: 54.43%); format: functional
MDA-MB-231 [7] = assay: Induction of apoptosis in human MDA-MB-231 cells assessed as early apoptotic cells at 10 uM incubated for 24 hrs by annexin V-FITC/propidium iodide staining based flow cytometry analysis (reference value: 3.39%); format: functional
[8] = molecular target: Cyclin-dependent kinase 9 (Homo sapiens, UniProt P50750); assay: Covalent inhibition of CDK9 (unknown origin) using histone H1 as substrate incubated for 10 mins in presence of [gamma-32P]ATP by radioactivity based kinase assay
MDA-MB-231 [9] = assay: Cell cycle arrest in human MDA-MB-231 cells assessed as accumulation of cells at G2/M phase at 10 uM incubated for 24 hrs by propidium iodide staining based assay (reference value: 20.49%); format: functional
MDA-MB-231 [10] = assay: Induction of apoptosis in human MDA-MB-231 cells assessed as apoptosis rate at 10 uM incubated for 24 hrs by annexin V-FITC/propidium iodide staining based flow cytometry analysis; format: functional
[11] = molecular target: Cyclin-dependent kinase 12 (Homo sapiens, UniProt Q9NYV4); assay: Covalent inhibition of CDK12 (unknown origin) using histone H1 as substrate incubated for 10 mins in presence of [gamma-32P]ATP by radioactivity based kinase assay
MDA-MB-231 [12] = assay: Induction of apoptosis in human MDA-MB-231 cells assessed as necrotic cells at 10 uM incubated for 24 hrs by annexin V-FITC/propidium iodide staining based flow cytometry analysis (reference value: 0.034%); format: functional
[13] = molecular target: Cyclin-dependent kinase 6 (Homo sapiens, UniProt Q00534); assay: Covalent inhibition of CDK6 (unknown origin) using histone H1 as substrate incubated for 10 mins in presence of [gamma-32P]ATP by radioactivity based kinase assay
MDA-MB-231 [14] = assay: Cell cycle arrest in human MDA-MB-231 cells assessed as accumulation of cells at S phase at 10 uM incubated for 24 hrs by propidium iodide staining based assay (reference value: 25.09%); format: functional
MCF7 [15] = assay: Antiproliferative activity against palbociclib-resistant human MCF7 cells assessed as inhibition of cell growth incubated for 72 hrs by MTT assay; format: functional, cell-based; details: MCF7, 72 h
[16] = molecular target: T1, Cyclin-dependent kinase 4/6 (Homo sapiens) (UniProt P11802+Q00534); assay: Inhibition of CDK4/CDK6 signaling pathway in human MDA-MB-231 cells assessed as inhibition of CDK4 expression level at 1 to 8 uM incubated for 24 hrs by western blot assay; format: cell-based; details: dose 1-8 µM
[17] = molecular target: T1, Cyclin-dependent kinase 4/6 (Homo sapiens); assay: Inhibition of CDK4/CDK6 signaling pathway in human MDA-MB-231 cells assessed as inhibition of CDK6 expression level at 1 to 8 uM incubated for 24 hrs by western blot assay; format: cell-based; details: dose 1-8 µM
[18] = molecular target: T1, Cyclin-dependent kinase 4/6 (Homo sapiens); assay: Inhibition of CDK4/CDK6 signaling pathway in human MDA-MB-231 cells assessed as reduction of RB phosphorylation at Ser780 residue level at 1 to 8 uM incubated for 24 hrs by western blot assay; format: cell-based; details: dose 1-8 µM
[19] = Resistance factor, ratio of IC50 for palbociclib-resistant human MCF7 cells to IC50 for human MCF7 cells; format: functional

Chain of Cyclin-dependent kinase 9 (P50750 whole entry): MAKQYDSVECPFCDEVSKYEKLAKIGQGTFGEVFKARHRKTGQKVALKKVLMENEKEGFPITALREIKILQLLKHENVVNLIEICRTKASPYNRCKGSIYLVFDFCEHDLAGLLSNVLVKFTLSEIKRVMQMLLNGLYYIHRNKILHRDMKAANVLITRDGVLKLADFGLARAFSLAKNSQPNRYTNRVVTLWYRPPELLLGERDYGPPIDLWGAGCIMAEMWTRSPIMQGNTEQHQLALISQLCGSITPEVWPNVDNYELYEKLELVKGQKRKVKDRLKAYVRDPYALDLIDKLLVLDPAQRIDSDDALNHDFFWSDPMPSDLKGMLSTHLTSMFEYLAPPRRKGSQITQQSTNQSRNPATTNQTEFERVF
Chain of Cyclin-dependent kinase 4 (P11802 whole entry): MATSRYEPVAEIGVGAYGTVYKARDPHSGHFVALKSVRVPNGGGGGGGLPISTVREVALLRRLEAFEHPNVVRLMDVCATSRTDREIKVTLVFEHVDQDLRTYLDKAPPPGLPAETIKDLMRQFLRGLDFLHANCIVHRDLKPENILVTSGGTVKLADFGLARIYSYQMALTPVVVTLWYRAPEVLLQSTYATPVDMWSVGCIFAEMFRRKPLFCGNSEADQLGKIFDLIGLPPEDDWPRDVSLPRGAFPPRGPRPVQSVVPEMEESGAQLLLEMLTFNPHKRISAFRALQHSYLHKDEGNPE
T1 sequence (P11802 whole entry, looked up): as the sequence (P11802 whole entry) above
T1 sequence (Q00534 whole entry, looked up): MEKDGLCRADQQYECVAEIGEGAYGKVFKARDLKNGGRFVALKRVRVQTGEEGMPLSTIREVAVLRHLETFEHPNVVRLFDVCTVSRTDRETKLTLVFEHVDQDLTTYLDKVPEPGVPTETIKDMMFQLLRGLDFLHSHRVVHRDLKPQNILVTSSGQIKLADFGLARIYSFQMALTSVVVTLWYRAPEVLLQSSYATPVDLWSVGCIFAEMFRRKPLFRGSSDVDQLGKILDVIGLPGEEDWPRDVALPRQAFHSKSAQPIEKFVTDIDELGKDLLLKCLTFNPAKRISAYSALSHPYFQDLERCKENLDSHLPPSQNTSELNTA
Chain of Cyclin-dependent kinase 12 (Q9NYV4 whole entry): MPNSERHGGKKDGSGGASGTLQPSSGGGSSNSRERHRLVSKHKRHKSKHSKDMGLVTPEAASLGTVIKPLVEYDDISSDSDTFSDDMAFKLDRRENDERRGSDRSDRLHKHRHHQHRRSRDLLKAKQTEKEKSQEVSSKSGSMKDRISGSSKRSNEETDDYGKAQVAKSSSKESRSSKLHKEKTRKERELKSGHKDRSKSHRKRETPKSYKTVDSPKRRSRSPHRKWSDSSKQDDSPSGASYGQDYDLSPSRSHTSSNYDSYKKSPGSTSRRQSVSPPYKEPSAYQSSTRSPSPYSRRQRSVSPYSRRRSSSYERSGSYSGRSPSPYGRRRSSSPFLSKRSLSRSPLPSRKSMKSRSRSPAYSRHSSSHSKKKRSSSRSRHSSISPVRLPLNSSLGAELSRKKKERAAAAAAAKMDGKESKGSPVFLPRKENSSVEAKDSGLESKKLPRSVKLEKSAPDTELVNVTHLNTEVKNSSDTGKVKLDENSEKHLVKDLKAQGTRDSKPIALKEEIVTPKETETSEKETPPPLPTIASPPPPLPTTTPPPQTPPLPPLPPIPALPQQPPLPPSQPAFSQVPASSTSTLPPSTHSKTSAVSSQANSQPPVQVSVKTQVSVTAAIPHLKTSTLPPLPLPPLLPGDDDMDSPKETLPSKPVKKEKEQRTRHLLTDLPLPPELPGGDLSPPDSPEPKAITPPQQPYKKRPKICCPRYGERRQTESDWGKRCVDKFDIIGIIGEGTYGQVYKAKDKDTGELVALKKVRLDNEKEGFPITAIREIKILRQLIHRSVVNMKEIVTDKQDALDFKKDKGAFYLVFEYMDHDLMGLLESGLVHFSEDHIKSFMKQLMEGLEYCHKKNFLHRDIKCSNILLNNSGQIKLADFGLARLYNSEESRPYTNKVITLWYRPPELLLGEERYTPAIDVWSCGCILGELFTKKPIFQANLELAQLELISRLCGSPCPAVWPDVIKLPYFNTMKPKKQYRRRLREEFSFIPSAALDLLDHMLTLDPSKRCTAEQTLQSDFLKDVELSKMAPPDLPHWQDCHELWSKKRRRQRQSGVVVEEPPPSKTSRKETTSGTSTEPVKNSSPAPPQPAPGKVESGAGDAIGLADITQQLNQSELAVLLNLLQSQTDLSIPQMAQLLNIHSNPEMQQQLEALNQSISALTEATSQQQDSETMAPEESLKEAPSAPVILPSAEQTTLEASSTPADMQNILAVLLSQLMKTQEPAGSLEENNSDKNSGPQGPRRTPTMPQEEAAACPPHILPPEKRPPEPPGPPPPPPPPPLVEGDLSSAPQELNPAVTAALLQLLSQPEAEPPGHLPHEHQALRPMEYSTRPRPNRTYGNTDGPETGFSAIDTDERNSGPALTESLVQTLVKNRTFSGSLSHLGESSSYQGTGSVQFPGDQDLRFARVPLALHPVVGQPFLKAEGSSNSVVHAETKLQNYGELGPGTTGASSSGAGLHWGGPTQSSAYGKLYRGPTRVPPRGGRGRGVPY
Chain of Cyclin-dependent kinase 6 (Q00534 whole entry): as the sequence (Q00534 whole entry, looked up) above

Compound | IC50 (HepG2) [µM] | IC50 (MCF7 [1]) [µM] | IC50 (A549) [µM] | IC50 (MDA-MB-231 [2]) [µM] | other results
COc1ccc(/C=C/C(=O)N2CCN(c3ccc(Nc4ncc5c(C)c(C(C)=O)c(=O)n(C6CCCC6)c5n4)nc3)CC2)cc1OC | > 20 | 1.85 | 16.1 | > 20 | –
COc1ccc(/C=C/C(=O)NCCC(=O)N2CCN(c3ccc(Nc4ncc5c(C)c(C(C)=O)c(=O)n(C6CCCC6)c5n4)nc3)CC2)cc1OC | 10.1 | > 20 | 11.8 | 7.2 | –
COc1cc(/C=C/C(=O)NCC(=O)N2CCN(c3ccc(Nc4ncc5c(C)c(C(C)=O)c(=O)n(C6CCCC6)c5n4)nc3)CC2)ccc1O | 10.6 | > 20 | 12.1 | 6.29 | –
CC(=O)c1c(C)c2cnc(Nc3ccc(N4CCN(C(=O)/C=C/c5ccccc5)CC4)cn3)nc2n(C2CCCC2)c1=O | 11.9 | > 20 | 14.4 | 6.73 | –
COc1ccc(/C=C/C(=O)NCC(=O)N2CCN(c3ccc(Nc4ncc5c(C)c(C(C)=O)c(=O)n(C6CCCC6)c5n4)nc3)CC2)cc1OC | 11.7 | 2.33 | 14.4 | 8.96 | –
CC(=O)c1c(C)c2cnc(Nc3ccc(N4CCN(C(=O)/C(C#N)=C/c5ccccc5)CC4)cn3)nc2n(C2CCCC2)c1=O | 9.11 | 0.42 | 9.57 | 5.68 | Activity (MDA-MB-231 [3]): 11%; viability at 10 µM (MDA-MB-231 [4]): 36.5%; IC50 [5]: 0.025 µM; Activity (MDA-MB-231 [6]): 63.83%; Activity (MDA-MB-231 [7]): 52.1%; IC50 [8]: > 1 µM; Activity (MDA-MB-231 [9]): 11.59%; Activity (MDA-MB-231 [10]): 63.1%; IC50 [11]: > 1 µM; Activity (MDA-MB-231 [12]): 0.425%; IC50 [13]: 0.019 µM; Activity (MDA-MB-231 [14]): 24.58%
COc1ccc(/C=C/C(=O)NCCCC(=O)N2CCN(c3ccc(Nc4ncc5c(C)c(C(C)=O)c(=O)n(C6CCCC6)c5n4)nc3)CC2)cc1O | > 20 | 2.69 | > 20 | 8.21 | –
COC(=O)/C=C/CN1CCN(c2ccc(Nc3ncc4c(C)c(C(C)=O)c(=O)n(C5CCCC5)c4n3)nc2)CC1 | > 20 | > 20 | 16.5 | > 20 | –
C=CC(=O)N1CCN(c2ccc(Nc3ncc4c(C)c(C(C)=O)c(=O)n(C5CCCC5)c4n3)nc2)CC1 | 9.55 | 0.62 | 9.75 | 5.26 | Activity (MDA-MB-231 [3]): 15.2%; viability at 10 µM (MDA-MB-231 [4]): 43.8%; IC50 [5]: 0.023 µM; Activity (MDA-MB-231 [6]): 60.21%; Activity (MDA-MB-231 [7]): 40.3%; IC50 [8]: > 1 µM; Activity (MDA-MB-231 [9]): 13.78%; Activity (MDA-MB-231 [10]): 55.5%; IC50 [11]: 0.89 µM; Activity (MDA-MB-231 [12]): 0.689%; IC50 [13]: 0.015 µM; Activity (MDA-MB-231 [14]): 26.01%
COc1ccc(/C=C/C(=O)NCCCC(=O)N2CCN(c3ccc(Nc4ncc5c(C)c(C(C)=O)c(=O)n(C6CCCC6)c5n4)nc3)CC2)cc1OC | 13.7 | > 20 | 13 | > 20 | –
CC(=O)c1c(C)c2cnc(Nc3ccc(N4CCNCC4)cn3)nc2n(C2CCCC2)c1=O [PALBOCICLIB] | 9.92 | 0.78 | 8.07 | 5.62 | Activity (MDA-MB-231 [3]): 26.1%; viability at 10 µM (MDA-MB-231 [4]): 24.8%; Activity (MDA-MB-231 [6]): 71.23%; Activity (MDA-MB-231 [7]): 47.6%; IC50 (MCF7 [15]): 5.81 µM; Activity (MDA-MB-231 [9]): 11.78%; Activity (MDA-MB-231 [10]): 73.7%; Activity (MDA-MB-231 [12]): 1.47%; Activity (MDA-MB-231 [14]): 16.99%
CC(=O)c1c(C)c2cnc(Nc3ccc(N4CCN(C(=O)/C=C/C(F)(F)F)CC4)cn3)nc2n(C2CCCC2)c1=O | 5.1 | 0.48 | 1.55 | 0.51 | Activity (MDA-MB-231 [3]): 16.7%; viability at 10 µM (MDA-MB-231 [4]): 20.6%; IC50 [5]: 0.018 µM; Activity (MDA-MB-231 [6]): 68.69%; Activity (MDA-MB-231 [7]): 62.3%; IC50 [8]: > 1 µM; inhibition [16]: Dose-Dependent Effect; IC50 (MCF7 [15]): 0.53 µM; inhibition [17]: Dose-Dependent Effect; inhibition [18]: Dose-Dependent Effect; Activity (MDA-MB-231 [9]): 10.14%; Activity (MDA-MB-231 [10]): 79%; IC50 [11]: > 1 µM; Ratio IC50 [19]: 1.1; Activity (MDA-MB-231 [12]): 0.445%; IC50 [13]: 0.013 µM; Activity (MDA-MB-231 [14]): 21.16%
CC(=O)c1c(C)c2cnc(Nc3ccc(N4CCN(C(=O)/C=C/C5CC5)CC4)cn3)nc2n(C2CCCC2)c1=O | > 20 | 1.32 | 17.6 | 7.75 | –
C/C=C/C(=O)N1CCN(c2ccc(Nc3ncc4c(C)c(C(C)=O)c(=O)n(C5CCCC5)c4n3)nc2)CC1 | > 20 | 2.36 | 17.3 | 8.57 | –
COc1cc(/C=C/C(=O)N2CCN(c3ccc(Nc4ncc5c(C)c(C(C)=O)c(=O)n(C6CCCC6)c5n4)nc3)CC2)ccc1O | > 20 | > 20 | > 20 | 8.88 | –
